Laboratory results published in ChEMBL document CHEMBL1201862, “PubChem BioAssay data set” (2004).
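Protocol summary: plate cells (96-well), add compound at 5 concentrations, incubate 48 h, interpolate endpoints linearly. Here, GI50 denotes the concentration required for 50% inhibition of growth.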 Calls of active or inactive are those of the source. No stated cut-off is given here; in the data, active = GI50 up to about 1.1 µM and inactive = higher.

Columns and labels:
Assay in all cases: NCI anticancer screen, dose series, 48 h
SN12C = test system: SN12C
UO-31 = test system: UO-31
OVCAR-4 = test system: OVCAR-4
UACC-257 = test system: UACC-257
LOX IMVI = test system: LOX IMVI
NCI-H226 = test system: NCI-H226
SK-MEL-2 = test system: SK-MEL-2
TK-10 = test system: TK-10
NCI-H23 = test system: NCI-H23
A498 = test system: A498
DMS-114 = test system: DMS-114
OVCAR-5 = test system: OVCAR-5
Malme-3M = test system: Malme-3M
HCT-116 = test system: HCT-116
SNB-78 = test system: SNB-78
OVCAR-8 = test system: OVCAR-8
KM-20L2 = test system: KM-20L2
ACHN = test system: ACHN
EKVX = test system: EKVX
SF-268 = test system: SF-268
RXF 393 = test system: RXF 393
RPMI-8226 = test system: RPMI-8226
SW-620 = test system: SW-620
M19-MEL = test system: M19-MEL
LXFL 529 = test system: LXFL 529
NCI-H460 = test system: NCI-H460
786-0 = test system: 786-0
U-251 = test system: U-251
SR = test system: SR
SK-OV-3 = test system: SK-OV-3
A549 = test system: A549
KM12 = test system: KM12
M14 = test system: M14
COLO 205 = test system: COLO 205
IGROV-1 = test system: IGROV-1
HOP-62 = test system: HOP-62
SF-295 = test system: SF-295
NCI-H522 = test system: NCI-H522
SK-MEL-5 = test system: SK-MEL-5
CAKI-1 = test system: CAKI-1
HOP-92 = test system: HOP-92
HCC 2998 = test system: HCC 2998
DMS-273 = test system: DMS-273
HT-29 = test system: HT-29
HCT-15 = test system: HCT-15
DLD-1 = test system: DLD-1
OVCAR-3 = test system: OVCAR-3
SNB-75 = test system: SNB-75
SF-539 = test system: SF-539
HL-60 = test system: HL-60
SK-MEL-28 = test system: SK-MEL-28
MOLT-4 = test system: MOLT-4
UACC-62 = test system: UACC-62
SNB-19 = test system: SNB-19
DU-145 = test system: DU-145
MDA-MB-231 = test system: MDA-MB-231
PC-3 = test system: PC-3
MDA-MB-435 = test system: MDA-MB-435
K562 = test system: K562
NCI/ADR-RES = test system: NCI/ADR-RES
MDA-N = test system: MDA-N
MCF7 = test system: MCF7
T47D = test system: T47D
Hs-578T = test system: Hs-578T
CCRF-CEM = test system: CCRF-CEM
BT-549 = test system: BT-549

Measured: GI50

CCCC(=O)OC[n+]1ccc2c(C)c3[nH]c4ccc(OC)cc4c3c(C)c2c1
0.288 µM: HCT-15
active: SN12C 0.222 µM | OVCAR-4 1.03 µM | LOX IMVI 0.23 µM | NCI-H226 0.444 µM | NCI-H23 0.347 µM | A498 1.02 µM | DMS-114 0.47 µM | OVCAR-5 0.675 µM | HCT-116 0.0552 µM | SNB-78 0.594 µM | OVCAR-8 0.092 µM | KM-20L2 0.226 µM | ACHN 0.215 µM | EKVX 1.01 µM | SF-268 0.313 µM | RXF 393 1.09 µM | RPMI-8226 0.0296 µM | SW-620 0.0692 µM | M19-MEL 0.555 µM | LXFL 529 0.498 µM | NCI-H460 0.0481 µM | 786-0 0.0953 µM | U-251 0.391 µM | SR 0.0486 µM | A549 0.306 µM | KM12 0.337 µM | M14 0.708 µM | COLO 205 0.427 µM | IGROV-1 0.625 µM | HOP-62 0.714 µM | SF-295 0.581 µM | NCI-H522 1.09 µM | CAKI-1 0.908 µM | HCC 2998 0.482 µM | DMS-273 0.0586 µM | HT-29 0.0931 µM | DLD-1 0.196 µM | OVCAR-3 0.873 µM | SF-539 0.305 µM | HL-60 0.259 µM | SK-MEL-28 0.74 µM | MOLT-4 0.0289 µM | UACC-62 1.06 µM
inactive: UO-31 1.74 µM | UACC-257 2.08 µM | SK-MEL-2 1.16 µM | TK-10 2.9 µM | Malme-3M 1.45 µM | SK-OV-3 1.51 µM | SK-MEL-5 1.19 µM | HOP-92 1.16 µM | SNB-75 1.16 µM

Cc1ccc(C(=O)NC(C)(C)C)cc1/N=N/N(C)C
inactive: SN12C > 100 µM | UO-31 > 100 µM | OVCAR-4 > 100 µM | UACC-257 > 100 µM | LOX IMVI > 100 µM | SK-MEL-2 > 100 µM | TK-10 > 100 µM | NCI-H23 > 100 µM | HCT-116 > 100 µM | SNB-19 60.7 µM | SNB-78 > 100 µM | OVCAR-8 > 100 µM | KM-20L2 > 100 µM | ACHN > 100 µM | EKVX > 100 µM | SF-268 42 µM | SW-620 > 100 µM | LXFL 529 > 100 µM | NCI-H460 > 100 µM | 786-0 > 100 µM | U-251 > 100 µM | A549 > 100 µM | KM12 > 100 µM | M14 > 100 µM | IGROV-1 > 100 µM | HOP-62 > 100 µM | SF-295 > 100 µM | NCI-H522 50.5 µM | SK-MEL-5 > 100 µM | CAKI-1 > 100 µM | HOP-92 > 100 µM | HCC 2998 > 100 µM | DMS-273 > 100 µM | HT-29 > 100 µM | DLD-1 > 100 µM | OVCAR-3 69.5 µM | SF-539 > 100 µM | SK-MEL-28 > 100 µM | UACC-62 > 100 µM
> 100 µM: HCT-15

CC1(C)CCCC2OC2CCC(C)(C)C1=O (stereo not drawn)
> 100 µM: HCT-15
inactive: SN12C > 100 µM | UO-31 > 100 µM | OVCAR-4 > 100 µM | UACC-257 > 100 µM | LOX IMVI > 100 µM | NCI-H226 > 100 µM | SK-MEL-2 > 100 µM | TK-10 > 100 µM | NCI-H23 > 100 µM | DU-145 > 100 µM | A498 > 100 µM | OVCAR-5 > 100 µM | MDA-MB-231 > 100 µM | PC-3 > 100 µM | Malme-3M > 100 µM | HCT-116 > 100 µM | SNB-19 > 100 µM | MDA-MB-435 > 100 µM | K562 > 100 µM | OVCAR-8 > 100 µM | ACHN > 100 µM | EKVX > 100 µM | SF-268 > 100 µM | RXF 393 > 100 µM | RPMI-8226 > 100 µM | SW-620 > 100 µM | NCI-H460 > 100 µM | 786-0 > 100 µM | U-251 > 100 µM | NCI/ADR-RES > 100 µM | SR > 100 µM | MDA-N > 100 µM | SK-OV-3 > 100 µM | A549 > 100 µM | KM12 > 100 µM | MCF7 > 100 µM | T47D > 100 µM | M14 > 100 µM | COLO 205 > 100 µM | IGROV-1 > 100 µM | HOP-62 > 100 µM | SF-295 > 100 µM | NCI-H522 > 100 µM | Hs-578T > 100 µM | SK-MEL-5 > 100 µM | CAKI-1 > 100 µM | HOP-92 > 100 µM | HCC 2998 > 100 µM | HT-29 > 100 µM | CCRF-CEM > 100 µM | OVCAR-3 > 100 µM | BT-549 > 100 µM | SNB-75 > 100 µM | SF-539 > 100 µM | HL-60 > 100 µM | SK-MEL-28 > 100 µM | MOLT-4 > 100 µM | UACC-62 > 100 µM

CC1CCC2(C(=O)O)CCC3(C)C(=CCC4C5(C)CC(O)C(O)C(C)(CO)C5C(O)CC43C)C2C1C (stereo not drawn)
inactive: SN12C 2.12 µM | UO-31 > 100 µM | OVCAR-4 > 100 µM | UACC-257 98.4 µM | LOX IMVI 20.5 µM | NCI-H226 > 79.6 µM | SK-MEL-2 19.4 µM | TK-10 > 100 µM | NCI-H23 65.8 µM | DU-145 > 100 µM | A498 24.3 µM | OVCAR-5 > 100 µM | MDA-MB-231 39.9 µM | PC-3 83.6 µM | Malme-3M 47.5 µM | HCT-116 5.65 µM | SNB-19 22.7 µM | MDA-MB-435 45.6 µM | K562 41.1 µM | OVCAR-8 21.1 µM | ACHN > 100 µM | EKVX > 89.3 µM | SF-268 28.5 µM | RXF 393 31.3 µM | RPMI-8226 33.4 µM | SW-620 > 100 µM | NCI-H460 > 100 µM | 786-0 3.29 µM | U-251 21.6 µM | NCI/ADR-RES > 100 µM | SR 22.8 µM | MDA-N 11.1 µM | SK-OV-3 > 100 µM | A549 > 100 µM | KM12 43.3 µM | MCF7 41.5 µM | T47D 37.4 µM | M14 > 100 µM | COLO 205 50 µM | IGROV-1 19.2 µM | HOP-62 45.4 µM | SF-295 74.5 µM | NCI-H522 17.5 µM | Hs-578T 19.4 µM | SK-MEL-5 41.8 µM | CAKI-1 > 100 µM | HOP-92 20.8 µM | HCC 2998 35.9 µM | HT-29 > 88.5 µM | CCRF-CEM 19 µM | OVCAR-3 24.1 µM | BT-549 31.7 µM | SNB-75 28.1 µM | SF-539 39 µM | HL-60 20.2 µM | SK-MEL-28 30.8 µM | MOLT-4 58.2 µM | UACC-62 21.3 µM
> 100 µM: HCT-15

OCC(O)C(O)C(O)c1nnn[nH]1 (stereo not drawn)
> 100 µM: HCT-15
inactive: SN12C > 100 µM | UO-31 > 100 µM | OVCAR-4 > 100 µM | LOX IMVI > 100 µM | NCI-H226 34.8 µM | SK-MEL-2 > 100 µM | NCI-H23 > 100 µM | DMS-114 > 100 µM | OVCAR-5 > 100 µM | Malme-3M > 100 µM | HCT-116 > 100 µM | SNB-78 > 100 µM | K562 > 100 µM | OVCAR-8 > 100 µM | ACHN > 100 µM | EKVX > 100 µM | SF-268 > 100 µM | RPMI-8226 > 100 µM | SW-620 > 100 µM | M19-MEL > 100 µM | LXFL 529 > 100 µM | NCI-H460 > 100 µM | 786-0 > 100 µM | U-251 > 100 µM | SR > 100 µM | SK-OV-3 > 100 µM | KM12 > 100 µM | M14 > 100 µM | COLO 205 > 100 µM | IGROV-1 > 100 µM | HOP-62 > 100 µM | SF-295 > 100 µM | NCI-H522 > 100 µM | SK-MEL-5 > 100 µM | CAKI-1 > 100 µM | HOP-92 > 100 µM | DMS-273 > 100 µM | HT-29 > 100 µM | DLD-1 > 100 µM | CCRF-CEM > 100 µM | OVCAR-3 > 100 µM | SNB-75 > 100 µM | SF-539 > 100 µM | HL-60 > 100 µM | MOLT-4 > 100 µM | UACC-62 > 100 µM
